Source: US10508109B2 (priority 2015, dated 2019)
Where a name gives a salt, the structure may show the parent alone. Read-outs that look alike come from different tables or passages of the source.

How the values were obtained:
A549 = test: Cell-based assay, anti-proliferative activity (Cell Counting Kit-8, 72 hours); settings: Homo sapiens, read-out: A549 IC50
Method in brief: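 Following seeding into 96-well microtiter plates, the cells receive candidate inhibitors, and cellular growth is quantified at the end of the exposure period. An IC50 is computed for each compound.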

SUV39H2 = SUV39H2 (Homo sapiens (Human), UniProt Q9H5I1); test: biochemical; type: biochemical; settings: 3H-SAM 100 nM, H3 Histone Peptide 350 nM, room temperature 3 hours
SUV39H2, sequence (Q9H5I1 whole entry): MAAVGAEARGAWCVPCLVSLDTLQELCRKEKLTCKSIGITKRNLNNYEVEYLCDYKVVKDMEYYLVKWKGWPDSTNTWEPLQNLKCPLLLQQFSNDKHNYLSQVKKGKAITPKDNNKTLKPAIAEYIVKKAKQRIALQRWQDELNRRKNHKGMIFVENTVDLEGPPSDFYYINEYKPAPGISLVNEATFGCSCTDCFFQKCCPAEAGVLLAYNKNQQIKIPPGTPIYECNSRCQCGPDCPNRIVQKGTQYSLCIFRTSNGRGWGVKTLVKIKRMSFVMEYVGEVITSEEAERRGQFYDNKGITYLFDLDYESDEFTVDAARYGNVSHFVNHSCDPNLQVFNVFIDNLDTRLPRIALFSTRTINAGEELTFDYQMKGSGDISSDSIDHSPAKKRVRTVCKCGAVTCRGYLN
Method in brief: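 Human SUV39H2, at a lot-specific concentration set by specific activity, was incubated with test compounds for 3 h at room temperature, then stopped with streptavidin SPA beads (50 μg/well final).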

[1] = A549 cells, 72 hours exposure, Cell Counting Kit-8

COc1cc(OC)c(-c2cn3ccc(N[C@H]4C[C@H]5CC[C@@H](C4)N5CC4CCCC4)cc3n2)cc1Cl [Example 443, 2-(5-chloro-2,4-dimethoxyphenyl)-N-((1R,3r,5S)-8-(cyclopentylmethyl)-8-azabicyclo[3.2.1]octan-3-yl)imidazo[1,2-a]pyridin-7-amine]
IC50 (A549; [1]): 820 nM | IC50 (SUV39H2): 17.3 nM

COc1cc(OC)c(-c2cn3ccc(N4CCN(c5ncc(N6CCN(C)CC6)cn5)CC4)cc3n2)cc1Cl [Example 430, 2-(5-chloro-2,4-dimethoxyphenyl)-7-(4-(5-(4-methylpiperazin-1-yl)pyrimidin-2-yl)piperazin-1-yl)imidazo[1,2-a]pyridine]
IC50 (A549; [1]): 950 nM | IC50 (SUV39H2): 13.7 nM

COc1cc(OC)c(-c2cn3ccc(N4CCN(c5cnc(N6CCCC6)nc5)CC4)cc3n2)cc1Cl [Example 333, 2-(5-chloro-2,4-dimethoxyphenyl)-7-(4-(2-(pyrrolidin-1-yl)pyrimidin-5-yl)piperazin-1-yl)imidazo[1,2-a]pyridine]
IC50 (A549; [1]): 720 nM | IC50 (SUV39H2): 62 nM

COc1cc(OC)c(-c2cn3ccc(N4CCN(c5nccc(N6CCC(=O)CC6)n5)CC4)cc3n2)cc1Cl [Example 366, 1-(2-(4-(2-(5-chloro-2,4-dimethoxyphenyl)imidazo[1,2-a]pyridin-7-yl)piperazin-1-yl)pyrimidin-4-yl)piperidin-4-one]
IC50 (A549; [1]): 860 nM | IC50 (SUV39H2): 62.9 nM

COc1cc(OC)c(-c2cn3ccc(N[C@H]4CC[C@@H](NCc5ccc(N(C)C)cc5)CC4)cc3n2)cc1Cl [Example 418, cis-N^1-(2-(5-chloro-2,4-dimethoxyphenyl)imidazo[1,2-a]pyridin-7-yl)-N^4-(4-(dimethylamino)benzyl)cyclohexane-1,4-diamine bis(2,2,2-trifluoroacetate)]
IC50 (A549; [1]): 610 nM | IC50 (SUV39H2): 41.3 nM

COc1cc(OC)c(-c2cn3ccc(N4CCN(c5cc(N6CCCCC6)ncn5)CC4)cc3n2)cc1Cl [Example 353, 2-(5-chloro-2,4-dimethoxyphenyl)-7-(4-(6-(piperidin-1-yl)pyrimidin-4-yl)piperazin-1-yl)imidazo[1,2-a]pyridine]
IC50 (A549; [1]): 780 nM | IC50 (SUV39H2): 41.9 nM

COc1cc(OC)c(-c2cn3ccc(N4CCN(c5nccc(N6CCN(C(C)=O)CC6)n5)CC4)cc3n2)cc1Cl [Example 373, 1-(4-(2-(4-(2-(5-chloro-2,4-dimethoxyphenyl)imidazo[1,2-a]pyridin-7-yl)piperazin-1-yl)pyrimidin-4-yl)piperazin-1-yl)ethanone 2,2,2-trifluoroacetate]
IC50 (A549; [1]): 640 nM | IC50 (SUV39H2): 13.6 nM

CNC1CCN(c2ncc(N3CCN(c4ccn5cc(-c6cc(Cl)c(OC)cc6OC)nc5c4)CC3)cn2)CC1 [Example 396, 1-(5-(4-(2-(5-chloro-2,4-dimethoxyphenyl)imidazo[1,2-a]pyridin-7-yl)piperazin-1-yl)pyrimidin-2-yl)-N-methylpiperidin-4-amine dihydrochloride]
IC50 (A549; A549, 72 h): 780 nM | IC50 (SUV39H2): 14.6 nM

COc1cc(OC)c(-c2cn3ccc(N4CC[C@H](NCc5ccc(NC(=O)OC(C)(C)C)cc5)C4)cc3n2)cc1Cl [Example 386, (S)-tert-butyl (4-(((1-(2-(5-chloro-2,4-dimethoxyphenyl)imidazo[1,2-a]pyridin-7-yl)pyrrolidin-3-yl)amino)methyl)phenyl)carbamate]
IC50 (A549; [1]): 730 nM | IC50 (SUV39H2): 24.8 nM

COc1cc(OC)c(-c2cn3ccc(N4CCN(c5nc(N)nc(N(C)C)n5)CC4)cc3n2)cc1Cl [Example 440, 6-(4-(2-(5-chloro-2,4-dimethoxyphenyl)imidazo[1,2-a]pyridin-7-yl)piperazin-1-yl)-N^2,N^2-dimethyl-1,3,5-triazine-2,4-diamine]
IC50 (A549; [1]): 620 nM | IC50 (SUV39H2): 35.8 nM

COc1cc(OC)c(-c2cn3ccc(N4CCN(c5ccnc(NCCCO)n5)CC4)cc3n2)cc1Cl [Example 395, 3-((4-(4-(2-(5-chloro-2,4-dimethoxyphenyl)imidazo[1,2-a]pyridine-7-yl)piperazin-1-yl)pyrimidin-2-yl)amino)propan-1-ol]
IC50 (A549; [1]): 770 nM | IC50 (SUV39H2): 14 nM

COc1cc(OC)c(-c2cn3ccc(N[C@H]4C[C@H]5CC[C@@H](C4)N5C(=O)c4ccccc4)cc3n2)cc1Cl [Example 457, ((1R,3r,5S)-3-((2-(5-chloro-2,4-dimethoxyphenyl)imidazo[1,2-a]pyridin-7-yl)amino)-8-azabicyclo[3.2.1]octan-8-yl)(phenyl)methanone]
IC50 (A549; [1]): 820 nM | IC50 (SUV39H2): 34.8 nM

COc1cc(OC)c(-c2cn3ccc(N4CC[C@H](NC(C)C5CCN(C(=O)OC(C)(C)C)CC5)C4)cc3n2)cc1Cl (stereo partly drawn) [Example 425, tert-butyl 4-(1-(((S)-1-(2-(5-chloro-2,4-dimethoxyphenyl)imidazo[1,2-a]pyridine-7-yl)pyrrolidin-3-yl)amino)ethyl)piperidine-1-carboxylate]
IC50 (A549; [1]): 890 nM | IC50 (SUV39H2): 57.9 nM

COc1cc(OC)c(-c2cn3ccc(N4CCN(c5nccc(N6CCC(N)C6)n5)CC4)cc3n2)cc1Cl (stereo not shown) [Example 405, 1-(2-(4-(2-(5-chloro-2,4-dimethoxyphenyl)imidazo[1,2-a]pyridin-7-yl)piperazin-1-yl)pyrimidin-4-yl)pyrrolidin-3-amine]
IC50 (A549; [1]): 690 nM | IC50 (SUV39H2): 15.3 nM

COc1cc(OC)c(-c2cn3ccc(N4CCN(c5ccnc(C#N)c5)CC4)cc3n2)cc1Cl [Example 330, 4-(4-(2-(5-chloro-2,4-dimethoxyphenyl)imidazo[1,2-a]pyridin-7-yl)piperazin-1-yl)picolinonitrile]
IC50 (A549; [1]): 560 nM | IC50 (SUV39H2): 98 nM

COc1cc(OC)c(-c2cn3ccc(N4CCN(C(C)=O)CC4C)cc3n2)cc1Cl (stereo not shown) [Example 308, 1-(4-(2-(5-chloro-2,4-dimethoxyphenyl)imidazo[1,2-a]pyridin-7-yl)-3-methylpiperazin-1-yl)ethanone]
IC50 (A549; [1]): 8600 nM | IC50 (SUV39H2): 3.5 nM

COc1cc(OC)c(-c2cn3ccc(N4CCN(Cc5ccncc5F)CC4)cc3n2)cc1Cl [Example 336, 2-(5-chloro-2,4-dimethoxyphenyl)-7-(4-((3-fluoropyridin-4-yl)methyl)piperazin-1-yl)imidazo[1,2-a]pyridine]
IC50 (A549; [1]): 970 nM | IC50 (SUV39H2): 16.1 nM

COc1cc(OC)c(-c2cn3ccc(N4CC[C@H](NCC5CCN(C(=O)OC(C)(C)C)CC5)C4)cc3n2)cc1Cl [Example 400, (S)-tert-butyl 4-(((1-(2-(5-chloro-2,4-dimethoxyphenyl)imidazo[1,2-a]pyridine-7-yl)pyrrolidin-3-yl)amino)methyl)piperidine-1-carboxylate]
IC50 (A549; [1]): 930 nM | IC50 (SUV39H2): 7.15 nM

COc1cc(OC)c(-c2cn3cc(-c4ccc(C#N)cc4)c(N4CC[C@H](N)C4)cc3n2)cc1Cl [Example 445, (S)-4-(7-(3-aminopyrrolidin-1-yl)-2-(5-chloro-2,4-dimethoxyphenyl)imidazo[1,2-a]pyridin-6-yl)benzonitrile dihydrochloride]
IC50 (A549; A549, 72 h): 940 nM | IC50 (SUV39H2): 85.9 nM

COc1cc(OC)c(-c2cn3ccc(N4CCN(c5nccc(N6CCN(C)CC6)n5)CC4)cc3n2)cc1Cl [Example 370, 2-(5-chloro-2,4-dimethoxyphenyl)-7-(4-(4-(4-methylpiperazin-1-yl)pyrimidin-2-yl)piperazin-1-yl)imidazo[1,2-a]pyridine]
IC50 (A549; A549, 72 h): 730 nM | IC50 (SUV39H2): 12 nM

COc1cc(OC)c(-c2cn3ccc(N4CCN(c5cc(C)ccn5)CC4)cc3n2)cc1Cl [Example 327, 2-(5-chloro-2,4-dimethoxyphenyl)-7-(4-(4-methylpyridin-2-yl)piperazin-1-yl)imidazo[1,2-a]pyridine]
IC50 (A549; A549, 72 h): 870 nM | IC50 (SUV39H2): 46.7 nM

COc1cc(OC)c(-c2cn3ccc(N4CCN(c5nccc(N)c5F)CC4)cc3n2)cc1Cl [Example 365, 2-(4-(2-(5-chloro-2,4-dimethoxyphenyl)imidazo[1,2-a]pyridin-7-yl)piperazin-1-yl)-3-fluoropyridin-4-amine formate]
IC50 (A549; A549, 72 h): 630 nM | IC50 (SUV39H2): 29.7 nM

COc1cc(OC)c(-c2cn3ccc(N[C@H]4CC[C@H](NCc5cccc(C)c5)CC4)cc3n2)cc1Cl [Example 415, (1r,4r)-N^1-(2-(5-chloro-2,4-dimethoxyphenyl)imidazo[1,2-a]pyridin-7-yl)-N^4-(3-methylbenzyl)cyclohexane-1,4-diamine]
IC50 (A549; [1]): 620 nM | IC50 (SUV39H2): 98 nM

COc1cc(OC)c(-c2cn3ccc(N4CCN(c5ccnc(N6CCC(O)CC6)n5)CC4)cc3n2)cc1Cl [Example 332, 1-(4-(4-(2-(5-chloro-2,4-dimethoxyphenyl)imidazo[1,2-a]pyridin-7-yl)piperazin-1-yl)pyrimidin-2-yl)piperidin-4-ol]
IC50 (A549; A549, 72 h): 910 nM | IC50 (SUV39H2): 21.6 nM

COc1cc(OC)c(-c2cn3ccc(N4CC[C@H](NCc5ccnc(Cl)c5)C4)cc3n2)cc1Cl [Example 413, (S)-1-(2-(5-chloro-2,4-dimethoxyphenyl)imidazo[1,2-a]pyridin-7-yl)-N-((2-chloropyridin-4-yl)methyl)pyrrolidin-3-amine dihydrochloride]
IC50 (A549; A549, 72 h): 770 nM | IC50 (SUV39H2): 6.35 nM

COc1cc(OC)c(-c2cn3ccc(N4CC[C@H](NC(C)C5CCCCC5)C4)cc3n2)cc1Cl (stereo partly drawn) [Example 416, (3S)-1-(2-(5-chloro-2,4-dimethoxyphenyl)imidazo[1,2-a]pyridin-7-yl)-N-(1-cyclohexylethyl)pyrrolidin-3-amine]
IC50 (A549; [1]): 670 nM | IC50 (SUV39H2): 47.6 nM
